Source: patent US10273221B2, “Microbiocidal heterobicyclic derivatives” (Syngenta Participations AG, priority 2015, dated 2019)

Tests used:
[1] = system: Botryotinia fuckeliana (Botrytis cinerea); assay: Botryotinia fuckeliana (Botrytis cinerea) / liquid culture (gray mould); assay type: cell-based; conditions: growth inhibition determined photometrically 3-4 days after application, vs untreated control, read-out: disease control
[2] = system: Fusarium culmorum; assay: microbe, parasite or virus in culture; assay type: cell-based; conditions: 72 h, read-out: disease control
[3] = system: Mycosphaerella graminicola (Septoria tritici); assay: Mycosphaerella graminicola (Septoria tritici) / liquid culture (Septoria blotch); assay type: cell-based; conditions: Zymoseptoria tritici, 96 h, growth inhibition determined photometrically 4-5 days after application, vs untreated control, read-out: disease control
[4] = system: Magnaporthe grisea (Pyricularia oryzae); assay: microbe, parasite or virus in culture; assay type: cell-based; conditions: 72 h, read-out: control of Magnaporthe grisea
[5] = system: Glomerella lagenarium (Colletotrichum lagenarium); assay: Glomerella lagenarium (Colletotrichum lagenarium) / liquid culture (anthracnose); assay type: cell-based; conditions: Colletotrichum orbiculare, growth inhibition measured photometrically 3-4 days after application, vs untreated control, read-out: disease control
[6] = system: Monographella nivalis (Microdochium nivale); assay: Monographella nivalis (Microdochium nivale) / liquid culture (foot rot cereals); assay type: cell-based; conditions: 96 h, growth inhibition determined photometrically 4-5 days after application, vs untreated control, read-out: disease control
[7] = system: Pyrenophora teres; assay: Pyrenophora teres / liquid culture (net blotch); assay type: cell-based; conditions: growth inhibition determined photometrically 3-4 days after application, vs untreated control
[8] = system: Sclerotinia sclerotiorum; assay: Sclerotinia sclerotiorum / liquid culture (cottony rot); conditions: 72 h, read-out: control of Sclerotinia sclerotiorum
Method: Sclerotinia sclerotiorum/Liquid Culture (Cottony Rot)
Mycelia fragments of a newly grown liquid culture of the fungus are directly mixed into nutrient broth (Vogels broth). After placing a (DMSO) solution of test compound into a microtiter plate (96-well format) the nutrient broth containing the fungal material is added. The test plates are incubated at 24° C. and the inhibition of growth is determined photometrically 3-4 days after application.

[9] = system: Gaeumannomyces graminis; assay: Gaeumannomyces graminis / liquid culture (take-all of cereals); assay type: cell-based; conditions: growth inhibition determined photometrically 4-5 days after application, vs untreated control, read-out: disease control

Row | SMILES | inhibition of growth at 200 ppm [1] [%] | inhibition of growth at 200 ppm [2] [%] | inhibition of growth at 200 ppm [3] [%] | inhibition of growth at 20 ppm [4] [%] | melting point [°C] | inhibition of growth at 200 ppm [5] [%] | inhibition of growth at 200 ppm [6] [%] | inhibition of growth at 20 ppm [7] [%] | inhibition of growth at 20 ppm [8] [%] | inhibition of growth at 200 ppm [9] [%]
1 | Cc1c(F)ccc2c1ncn2C1=NC(C)(C)C(=O)c2cc(Cl)ccc21 [E-35] | ≥ 80 | ≥ 80 | ≥ 80 | ≥ 80 | 133 to 136 |  |  |  |  | 
2 | Cc1cccc2c1C(=O)C(C)(C)N=C2n1cnc2c(C)c(C)ccc21 [E-27] | ≥ 80 | ≥ 80 |  | ≥ 80 | 145 to 149 | ≥ 80 | ≥ 80 | ≥ 80 | ≥ 80 | 
3 | Cc1cc2ncn(C3=NC(C)(C)C(C)(C)c4c(F)cccc43)c2cc1C [E-30] | ≥ 80 | ≥ 80 | ≥ 80 | ≥ 80 |  | ≥ 80 | ≥ 80 |  | ≥ 80 | ≥ 80
4 | Cc1ccc2c(ncn2C2=NC(C)(C)C(F)(F)c3cc(F)ccc32)c1C [E-56] | ≥ 80 | ≥ 80 | ≥ 80 | ≥ 80 |  | ≥ 80 | ≥ 80 |  | ≥ 80 | 
5 | Cc1cccc2c1C(F)(F)C(C)(C)N=C2n1cnc2c(C)cccc21 [E-21] | ≥ 80 | ≥ 80 | ≥ 80 | ≥ 80 |  | ≥ 80 | ≥ 80 | ≥ 80 | ≥ 80 | ≥ 80
6 | Cc1ccc2c(ncn2C2=NC(C)(C)C(C)(C)c3c(F)cccc32)c1C [E-18] | ≥ 80 | ≥ 80 | ≥ 80 | ≥ 80 |  | ≥ 80 | ≥ 80 | ≥ 80 | ≥ 80 | ≥ 80
7 | Cc1ccc2c(ncn2C2=NC(C)(C)C(C)(C)c3c(F)cccc32)c1F [E-60] | ≥ 80 | ≥ 80 | ≥ 80 | ≥ 80 |  | ≥ 80 | ≥ 80 |  |  | ≥ 80
8 | CC1(C)N=C(n2cnc3c(Br)cccc32)c2cccc(F)c2C1(C)C [E-4] | ≥ 80 | ≥ 80 |  | ≥ 80 | 48 to 49 | ≥ 80 | ≥ 80 | ≥ 80 |  | ≥ 80
9 | CC1(C)N=C(n2cnc3c(Cl)cccc32)c2cccc(F)c2C1(C)C [E-17] | ≥ 80 | ≥ 80 |  | ≥ 80 | 50 to 51 | ≥ 80 | ≥ 80 | ≥ 80 | ≥ 80 | ≥ 80
10 | Cc1ccc2c(ncn2C2=NC(C)(C)C(F)(F)c3ccccc32)c1C [E-23] | ≥ 80 | ≥ 80 |  | ≥ 80 |  | ≥ 80 | ≥ 80 | ≥ 80 | ≥ 80 | ≥ 80
11 | Cc1cccc2c1ncn2C1=NC(C)(C)C(F)(F)c2ccccc21 [E-15] | ≥ 80 | ≥ 80 |  | ≥ 80 |  | ≥ 80 | ≥ 80 | ≥ 80 | ≥ 80 | ≥ 80
12 | Cc1ccc2c(ncn2C2=NC(C)(C)C(F)(F)c3c(F)cccc32)c1C [E-19] | ≥ 80 | ≥ 80 |  | ≥ 80 |  | ≥ 80 | ≥ 80 | ≥ 80 | ≥ 80 | ≥ 80
13 | Cc1cccc2c1ncn2C1=NC(C)(C)C(=O)c2cc(Cl)ccc21 [E-34] | ≥ 80 | ≥ 80 | ≥ 80 | ≥ 80 | 129 to 133 |  | ≥ 80 |  |  | 
